Columns and labels:
Format in all cases: in vivo
[1] = system: sedge, umbrella (small-flower umbrella sedge, Cyperus difformis); assay: Test B flooded paddy test, visual plant response rating; details: 250 g ai/ha, Flood, applied to paddy water, 2-leaf stage, evaluated after 13 to 15 days
Outline: (§1)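 Visual scores compare treated plants with controls after 13 to 15 days of greenhouse growth. Treatment was made into paddy water standing 3 cm above the soil, with plants at the 2-leaf stage and flooding maintained throughout.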

[2] = system: ducksalad (Heteranhera limosa); assay: as above; details: 250 g ai/ha, Flood, applied to paddy water, 2-leaf stage, evaluated after 13 to 15 days
Outline: as §1

[3] = system: barnyardgrass (Echinochloa crus-galli); assay: as above; details: 250 g ai/ha, Flood, applied to paddy water, 2-leaf stage, evaluated after 13 to 15 days
Outline: as §1

rice (Oryza sativa) = assay: as above; details: 250 g ai/ha, Flood, applied to paddy water, 2-leaf stage, evaluated after 13 to 15 days
Outline: as §1

[4] = system: Italian ryegrass (Lolium multiflorum); assay: Test A preemergence, visual plant response rating; details: for Ryegrass, Italian plant response rating: 125 g ai/ha, preemergence, 0 to 100 scale, 0 no effect, 100 complete control; for Ryegrass, Italian plant response rating (0 to 100 scale): 500 g ai/ha Preemergence, approx. 10 days
Outline: (§2)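 Preemergence: seeds in loam/sand blend given directed soil spray of compound in non-phytotoxic solvent with surfactant. Postemergence: plants 2–10 cm, one- to two-leaf stage, sprayed with same formulation. Visual injury rated vs untreated controls after ~10 days in greenhouse, 0 (no effect) to 100 (complete control).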

[5] = system: foxtail, giant (giant foxtail, Setaria faberii); assay: Test A preemergence, visual plant response rating; details: for Foxtail, Giant plant response rating: 125 g ai/ha, preemergence, 0 to 100 scale, 0 no effect, 100 complete control; for Foxtail, Giant plant response rating (0 to 100 scale): 500 g ai/ha Preemergence, approx. 10 days
Outline: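 Ratings 0–100 (100 = complete control), visual, vs untreated controls at ~10 days. Application pre- or postemergence; solvent mixture with surfactant; loam/sand medium.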

[6] = system: ragweed (common ragweed, Ambrosia elatior); assay: Test A preemergence, visual plant response rating; details: for Ragweed plant response rating: 125 g ai/ha, preemergence, 0 to 100 scale, 0 no effect, 100 complete control; for Ragweed plant response rating (0 to 100 scale): 500 g ai/ha Preemergence, approx. 10 days
Outline: as §2

[7] = system: pigweed (Amaranthus retroflexus); assay: Test A preemergence, visual plant response rating; details: for Pigweed plant response rating: 125 g ai/ha, preemergence, 0 to 100 scale, 0 no effect, 100 complete control; for Pigweed plant response rating (0 to 100 scale): 500 g ai/ha Preemergence, approx. 10 days
Outline: as §2

[8] = system: barnyardgrass (Echinochloa crus-galli); assay: Test A preemergence, visual plant response rating; details: for Barnyardgrass plant response rating: 125 g ai/ha, preemergence, 0 to 100 scale, 0 no effect, 100 complete control; for Barnyardgrass plant response rating (0 to 100 scale): 500 g ai/ha Preemergence, approx. 10 days
Outline: as §2

kochia (Kochia scoparia) [9] = assay: Test A preemergence, visual plant response rating; details: for Kochia plant response rating: 125 g ai/ha, preemergence, 0 to 100 scale, 0 no effect, 100 complete control; for Kochia plant response rating (0 to 100 scale): 500 g ai/ha Preemergence, approx. 10 days
Outline: as §2

[10] = system: Italian ryegrass (Lolium multiflorum); assay: Test A postemergence, visual plant response rating; details: for Ryegrass, Italian plant response rating (0 to 100 scale): 500 g ai/ha, postemergence, 0 is no effect, 100 is complete control; for Ryegrass, Italian plant response rating: Postemergence, 125 g ai/ha, 0 to 100 scale (0 no effect, 100 complete control)
Outline: as §2

corn (Zea mays) = assay: Test A postemergence, visual plant response rating; details: for Corn plant response rating (0 to 100 scale): 500 g ai/ha, postemergence, 0 is no effect, 100 is complete control; for Corn plant response rating: Postemergence, 125 g ai/ha, 0 to 100 scale (0 no effect, 100 complete control)
Outline: as §2

[11] = system: foxtail, giant (giant foxtail, Setaria faberii); assay: Test A postemergence, visual plant response rating; details: for Foxtail, Giant plant response rating (0 to 100 scale): 500 g ai/ha, postemergence, 0 is no effect, 100 is complete control; for Foxtail, Giant plant response rating: Postemergence, 125 g ai/ha, 0 to 100 scale (0 no effect, 100 complete control)
Outline: as §2

[12] = system: wheat (Triticum aestivum); assay: Test A postemergence, visual plant response rating; details: for Wheat plant response rating (0 to 100 scale): 500 g ai/ha, postemergence, 0 is no effect, 100 is complete control; for Wheat plant response rating: Postemergence, 125 g ai/ha, 0 to 100 scale (0 no effect, 100 complete control)
Outline: as §2

[13] = system: galium (catchweed bedstraw, Galium aparine); assay: Test A postemergence, visual plant response rating; details: for Galium plant response rating (0 to 100 scale): 500 g ai/ha, postemergence, 0 is no effect, 100 is complete control; for Galium plant response rating: Postemergence, 125 g ai/ha, 0 to 100 scale (0 no effect, 100 complete control)
Outline: as §2

[14] = system: ragweed (common ragweed, Ambrosia elatior); assay: Test A postemergence, visual plant response rating; details: for Ragweed plant response rating (0 to 100 scale): 500 g ai/ha, postemergence, 0 is no effect, 100 is complete control; for Ragweed plant response rating: Postemergence, 125 g ai/ha, 0 to 100 scale (0 no effect, 100 complete control)
Outline: as §2

[15] = system: pigweed (Amaranthus retroflexus); assay: Test A postemergence, visual plant response rating; details: for Pigweed plant response rating (0 to 100 scale): 500 g ai/ha, postemergence, 0 is no effect, 100 is complete control; for Pigweed plant response rating: Postemergence, 125 g ai/ha, 0 to 100 scale (0 no effect, 100 complete control)
Outline: as §2

[16] = system: barnyardgrass (Echinochloa crus-galli); assay: Test A postemergence, visual plant response rating; details: for Barnyardgrass plant response rating (0 to 100 scale): 500 g ai/ha, postemergence, 0 is no effect, 100 is complete control; for Barnyardgrass plant response rating: Postemergence, 125 g ai/ha, 0 to 100 scale (0 no effect, 100 complete control)
Outline: as §2

[17] = system: blackgrass (Alopecurus myosuroides); assay: Test A postemergence, visual plant response rating; details: for Blackgrass plant response rating (0 to 100 scale): 500 g ai/ha, postemergence, 0 is no effect, 100 is complete control; for Blackgrass plant response rating: Postemergence, 125 g ai/ha, 0 to 100 scale (0 no effect, 100 complete control)
Outline: as §2

kochia (Kochia scoparia) [18] = assay: Test A postemergence, visual plant response rating; details: for Kochia plant response rating (0 to 100 scale): 500 g ai/ha, postemergence, 0 is no effect, 100 is complete control; for Kochia plant response rating: Postemergence, 125 g ai/ha, 0 to 100 scale (0 no effect, 100 complete control)
Outline: as §2

SMILES	Plant response rating, Sedge, Umbrella (0 to 100 scale, 0 is no effect, 100 is complete control) [1]	Plant response rating, Ducksalad (0 to 100 scale, 0 is no effect, 100 is complete control) [2]	Plant response rating, Barnyardgrass (0 to 100 scale, 0 is no effect, 100 is complete control) [3]	Plant response rating, Rice (0 to 100 scale, 0 is no effect, 100 is complete control) (rice (Oryza sativa))	Ryegrass, Italian plant response rating [4]	Ryegrass, Italian plant response rating (0 to 100 scale) [4]	Foxtail, Giant plant response rating [5]	Foxtail, Giant plant response rating (0 to 100 scale) [5]	Ragweed plant response rating [6]	Ragweed plant response rating (0 to 100 scale) [6]	Pigweed plant response rating [7]	Pigweed plant response rating (0 to 100 scale) [7]	Barnyardgrass plant response rating [8]	Barnyardgrass plant response rating (0 to 100 scale) [8]	Kochia plant response rating (kochia (Kochia scoparia) [9])	Kochia plant response rating (0 to 100 scale) (kochia (Kochia scoparia) [9])	Ryegrass, Italian plant response rating (0 to 100 scale) [10]	Ryegrass, Italian plant response rating [10]	Corn plant response rating (0 to 100 scale) (corn (Zea mays))	Corn plant response rating (corn (Zea mays))	further results
CO/N=C(\c1cccc(C#N)c1)c1c(O)c(C)nn(C)c1=O [Compound 74]	10	25	0	15	0	0	0	0	0	0	0	0	0	0	0	0	20	10	0	0	Foxtail, Giant plant response rating (0 to 100 scale) [11]: 0; Foxtail, Giant plant response rating [11]: 0; Wheat plant response rating (0 to 100 scale) [12]: 0; Wheat plant response rating [12]: 0; Galium plant response rating (0 to 100 scale) [13]: 50; Galium plant response rating [13]: 10; Ragweed plant response rating (0 to 100 scale) [14]: 20; Ragweed plant response rating [14]: 0; Pigweed plant response rating (0 to 100 scale) [15]: 30; Pigweed plant response rating [15]: 20; Barnyardgrass plant response rating (0 to 100 scale) [16]: 0; Barnyardgrass plant response rating [16]: 0; Blackgrass plant response rating (0 to 100 scale) [17]: 20; Blackgrass plant response rating [17]: 0; Kochia plant response rating (0 to 100 scale) (kochia (Kochia scoparia) [18]): 30; Kochia plant response rating (kochia (Kochia scoparia) [18]): 0
CON=C(c1c(O)c(C)nn(C)c1=O)c1ccc(Cl)c2ccccc12 [Compound 40]	0	0	0	0	20	60	50	90	40	80	30	60	30	60	0	10	90	50	10	0	Foxtail, Giant plant response rating (0 to 100 scale) [11]: 50; Foxtail, Giant plant response rating [11]: 10; Wheat plant response rating (0 to 100 scale) [12]: 50; Wheat plant response rating [12]: 20; Galium plant response rating (0 to 100 scale) [13]: 100; Galium plant response rating [13]: 70; Ragweed plant response rating (0 to 100 scale) [14]: 80; Ragweed plant response rating [14]: 70; Pigweed plant response rating (0 to 100 scale) [15]: 40; Pigweed plant response rating [15]: 10; Barnyardgrass plant response rating (0 to 100 scale) [16]: 30; Barnyardgrass plant response rating [16]: 30; Blackgrass plant response rating (0 to 100 scale) [17]: 80; Blackgrass plant response rating [17]: 70; Kochia plant response rating (0 to 100 scale) (kochia (Kochia scoparia) [18]): 40; Kochia plant response rating (kochia (Kochia scoparia) [18]): 10
CCc1ccccc1/C(=N\OC)c1c(O)c(C)nn(C)c1=O [Compound 69]	0	0	0	0	10	80	10	30	10	40	10	70	0	10	0	10	80	80	20	0	Foxtail, Giant plant response rating (0 to 100 scale) [11]: 40; Foxtail, Giant plant response rating [11]: 10; Wheat plant response rating (0 to 100 scale) [12]: 0; Wheat plant response rating [12]: 0; Galium plant response rating (0 to 100 scale) [13]: 80; Galium plant response rating [13]: 70; Ragweed plant response rating (0 to 100 scale) [14]: 70; Ragweed plant response rating [14]: 70; Pigweed plant response rating (0 to 100 scale) [15]: 70; Pigweed plant response rating [15]: 40; Barnyardgrass plant response rating (0 to 100 scale) [16]: 30; Barnyardgrass plant response rating [16]: 20; Blackgrass plant response rating (0 to 100 scale) [17]: 60; Blackgrass plant response rating [17]: 10; Kochia plant response rating (0 to 100 scale) (kochia (Kochia scoparia) [18]): 70; Kochia plant response rating (kochia (Kochia scoparia) [18]): 50
